Measured values reported in patent US5798379A, “UCS1025 compounds” (Kyowa Hakko Kogyo Co., Ltd., priority 1996, dated 1998).
Converted amounts (≈) assume the structure as drawn.

How the values were obtained:
[1] = test system: Staphylococcus aureus ATCC 6538P; test: Antibacterial activity by agar dilution method; assay type: cell-based; details: ATCC6538P, pH 7, read-out: Minimum inhibitory concentration
Protocol: (§1) Antibacterial activity of UCS1025A and UCS1025B against various bacteria were measured.
(§2) The antibacterial activity was measured by an agar dilution method on media (pH 7) -composed of 3 g/L of Bacto-tryptone (manufactured by Difco), 3 g/L of meat extract, 1 g/L of yeast extract, 1 g/L of glucose and 16 g/L of agar. The antibacterial activity was shown by minimum inhibitory concentration (MIC).

[2] = test system: Enterococcus hirae ATCC 10541; test: Antibacterial activity by agar dilution method; assay type: cell-based; details: ATCC10541, pH 7, read-out: Minimum inhibitory concentration
Protocol: as §1, §2

[3] = test system: Bacillus subtilis No. 10707; test: Antibacterial activity by agar dilution method; assay type: cell-based; details: pH 7, read-out: Minimum inhibitory concentration
Protocol: as §1, §2

[4] = test system: Proteus vulgaris ATCC 6897; test: Antibacterial activity by agar dilution method; assay type: cell-based; details: ATCC6897, pH 7, read-out: Minimum inhibitory concentration
Protocol: as §1, §2

[5] = test system: human renal carcinoma ACHN; test: Growth inhibition against human renal carcinoma ACHN cells (MTT); assay type: cell-based; details: 72 hours
Protocol: (§3) Growth inhibition against human mammary carcinoma MCF-7, human cystocarcinoma T24, human epidermoid carcinoma A431 and human renal carcinoma ACHN cells:
(§4) Respective cells were dispensed into a 96 well microtiter plate (Nunc #167008) in 1×10^3 cells/well portions in the case of MCF-7 and T24 or in 1.5×lO^3 cells/well portions in the case of A431 and ACHN and cultured at 37° C. for 24 hours in a 5% carbon dioxide incubator. Thereafter, 30 mM of UCS1025A and 30 mM of UCS1025B were each serially diluted and added to the wells in 50 μl portions. The final concentration of each solution becomes 100 μM at the maximum at this stage. They were cultured again at 37° C. for 72 hours in the 5% carbon dioxide incubator. Five hours prior to the completion of the culturing, MTT [3-(4,5-dimethylthiazo-2-yl)-2,5-diphenyltetrazolium bromide, Sigma] which had been dissolved in the culture to a final concentration of 1 mg/ml was dispensed into the plate in 50 μl/well portions. After completion of the culturing, DMSO was dispensed in 150 μl/well portions, and the resulting plate was stirred vigorously using a plate mixer to dissolve MTT-formazan crystals completely. Thereafter, absorbance at 550 nm was measured using a microplate spectrophotometer M-SPmax250 (manufactured by Wako Pure Chemical Industries). The cell growth inhibition activity was shown by the 50% inhibitory concentration IC50

[6] = test system: human cystocarcinoma T24; test: Growth inhibition against human cystocarcinoma T24 cells (MTT); assay type: cell-based; details: T-24, 72 hours
Protocol: as §3, §4

[7] = test system: human mammary carcinoma MCF-7; test: Growth inhibition against human mammary carcinoma MCF-7 cells (MTT); assay type: cell-based; details: MCF7, 72 hours
Protocol: as §3, §4

[8] = Solubility; assay type: physicochemical
[9] = test system: human epidermoid carcinoma A431; test: Growth inhibition against human epidermoid carcinoma A431 cells (MTT); assay type: cell-based; details: A-431, 72 hours
Protocol: as §3, §4

[10] = in methanol, ethyl acetate, chloroform, dimethylsulfoxide (DMSO)

| MIC [1] | MIC [2] | MIC [3] | MIC [4] | IC50 [5] | IC50 [6] | IC50 [7] | Solubility ([8]; in hexane) | Solubility [8, 10] | IC50 [9] | SMILES |
| --- | --- | --- | --- | --- | --- | --- | --- | --- | --- | --- |
| 42 µg/mL (≈ 112 µM) | 42 µg/mL (≈ 112 µM) | 83 µg/mL (≈ 221 µM) | 83 µg/mL (≈ 221 µM) | > 100 µM | > 100 µM | > 100 µM | hardly soluble | Soluble | > 100 µM | CC1C=CC2CCCCC2C1C(=O)C1(O)C(=O)N2CCC3C(=O)OC1C32O (centres unmarked) [UCS1025B] |
| 1.3 µg/mL (≈ 3.62 µM) | 1.3 µg/mL (≈ 3.62 µM) | 1.3 µg/mL (≈ 3.62 µM) | 5.2 µg/mL (≈ 14.5 µM) | 58 µM | 51 µM | 21 µM | hardly soluble | Soluble | 55 µM | CC1C=CC2CCCCC2C1C(=O)C1C(=O)N2CCC3C(=O)OC1C32O (centres unmarked) [UCS1025A] |
